# Target: Death-associated protein kinase 1 (Homo sapiens, UniProt P53355)
# Assay: Binding affinity to DAPK1 (unknown origin) assessed as dissociation constant by ITC analysis
# Chain of Death-associated protein kinase 1 (P53355 whole entry): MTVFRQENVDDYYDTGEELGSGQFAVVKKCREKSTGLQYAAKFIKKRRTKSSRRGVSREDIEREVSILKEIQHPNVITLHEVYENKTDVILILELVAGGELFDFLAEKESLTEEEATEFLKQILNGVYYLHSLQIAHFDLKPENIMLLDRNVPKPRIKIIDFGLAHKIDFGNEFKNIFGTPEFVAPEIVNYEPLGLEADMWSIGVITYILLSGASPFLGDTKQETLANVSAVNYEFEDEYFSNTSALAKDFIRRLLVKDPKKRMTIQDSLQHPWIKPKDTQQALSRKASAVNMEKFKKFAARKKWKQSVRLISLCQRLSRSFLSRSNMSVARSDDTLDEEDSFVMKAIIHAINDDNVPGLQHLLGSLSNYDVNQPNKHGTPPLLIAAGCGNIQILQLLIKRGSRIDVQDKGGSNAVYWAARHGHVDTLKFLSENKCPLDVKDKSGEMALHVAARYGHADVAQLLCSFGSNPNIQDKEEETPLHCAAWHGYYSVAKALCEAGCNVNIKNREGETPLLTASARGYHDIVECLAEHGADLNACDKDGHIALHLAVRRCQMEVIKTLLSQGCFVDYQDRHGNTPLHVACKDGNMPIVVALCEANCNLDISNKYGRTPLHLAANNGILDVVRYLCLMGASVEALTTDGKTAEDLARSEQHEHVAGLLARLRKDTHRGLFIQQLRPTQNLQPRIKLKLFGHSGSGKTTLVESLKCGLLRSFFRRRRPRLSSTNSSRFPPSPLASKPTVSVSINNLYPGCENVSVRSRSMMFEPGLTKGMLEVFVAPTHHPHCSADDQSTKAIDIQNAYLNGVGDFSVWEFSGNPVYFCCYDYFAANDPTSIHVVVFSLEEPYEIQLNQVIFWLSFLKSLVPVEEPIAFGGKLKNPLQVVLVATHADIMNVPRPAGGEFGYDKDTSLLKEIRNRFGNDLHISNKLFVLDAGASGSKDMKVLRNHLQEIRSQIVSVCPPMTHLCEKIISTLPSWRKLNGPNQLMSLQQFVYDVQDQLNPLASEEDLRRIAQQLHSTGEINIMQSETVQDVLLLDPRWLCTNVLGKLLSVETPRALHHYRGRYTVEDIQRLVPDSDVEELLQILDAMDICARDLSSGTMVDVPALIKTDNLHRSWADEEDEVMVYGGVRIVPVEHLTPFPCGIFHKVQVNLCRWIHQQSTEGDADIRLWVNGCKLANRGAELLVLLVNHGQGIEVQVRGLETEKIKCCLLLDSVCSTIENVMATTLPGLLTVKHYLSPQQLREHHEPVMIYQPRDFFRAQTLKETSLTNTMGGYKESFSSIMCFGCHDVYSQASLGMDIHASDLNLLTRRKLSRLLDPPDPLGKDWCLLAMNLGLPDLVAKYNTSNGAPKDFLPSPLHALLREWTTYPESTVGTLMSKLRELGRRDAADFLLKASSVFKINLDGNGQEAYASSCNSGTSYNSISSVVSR
smiles,measurement,value
O=C(/C=C/c1ccc(O)cc1)c1ccc(O)cc1O [ISOLIQUIRITIGENIN],Kd,2.48 µM

# — ChEMBL document CHEMBL6127040, “Discovery and optimization of isoliquiritigenin as a death-associated protein kinase 1 inhibitor” (Eur J Med Chem, 2024)
